Experimental data reported in US7414023B2, “Peptide ligands for prostate specific antigen” (Licentia Ltd., priority 2000, dated 2008).
Bridge positions count the residues as written; N and C are the ends. Peptide text beside a SMILES is read from it.

Tests used:
PSA [1] = molecular target: T1, PSA (Homo sapiens, UniProt P07288); assay: GST-peptide IFMA: binding of GST-peptides to PSA captured by MAb 5E4; parameters: PSA was purified from human seminal fluid as described previously (3); from tissue; host or cells: human seminal fluid; details: for binding to PSA in GST-peptide IFMA (in words): GST fusion proteins; for Maximal binding (CPS): GST-peptide fusion proteins, Eu-labelled anti GST antibody as tracer
Experimental: After washing the binding of GST-peptide was quantified by IFMA using an Eu-labelled anti GST antibody as tracer. Data represent mean values from duplicate wells ±standard error (SE).
The solid phase antibodies used in the IFMAs were coated onto microtitration wells at a concentration of 5 μg/mL in TBS for 16 h at 22° C., the solution was discarded and the wells were saturated with 10 g/L bovine serum albumin in TBS for 3 h at 22° C. The antibodies used as tracers were labeled with a Eu^3+ chelate as described previously (26). The assay buffer was 50 mM Tris-HCL, pH 7.7, 150 mM NaCl, 33.3 μM bovine serum albumin, 1 μM bovine globulin.
The binding of individual phage clones to PSA was tested by IFMA (phage IFMA). In the phage IFMA, about 30 ng of PSA was added to MAb 5E4 coated wells for 1 h. After washing (Buffer: 150 mM NaCl, 7.7 mM NaN3, 0.2 g/L Tween 20), 15 μL of phage and 200 μl assay buffer was added. After incubation for 1 h, the wells were washed and filled with 200 μl of assay buffer containing 50 ng europium-labeled anti phage monoclonal antibody recognizing the M13 coat protein of the phage. After incubation for 60 min, the wells were washed 4 times, and enhancement solution (EG&G-Wallac) was added. The fluorescence was quantified with a 1234 DELFIA Research fluorometer (EG&G-Wallac). Binding of GST-peptide to PSA was determined by an IFMA (GST-peptide IFMA) similar to the one for phage peptides except that Eu^3+-labeled antibody to GST was used. Various amounts of GST-peptide or wild type GST were added to wells containing captured PSA in 200 μL of assay buffer and incubated for 1 h. To test the effect of Zn^2+ on the binding between GST-peptide and PSA, various concentrations of Zn^2+ (1-200 μM) were added to the buffer in the incubation step of GST-peptide and PSA. In competition experiments, GST-peptide (167 nM) or wild type GST were first incubated with increasing amounts of PSA (0-333 nM) in 0.5% BSA-TBS buffer for 60 min, then added to wells containing PSA captured by MAb 5E4. After incubation for 1 h the wells were washed and Eu^3+-labeled anti GST antibody was added. After further incubation and washing the bound fluorescence was measured as described above. When assessing the binding of the GST-peptides to other proteinases, including chymotrypsin, cathepsin G, trypsin, and kallikrein, these proteinases were captured by their specific antibodies coated to the microtitration well. Recombinant hK2 was captured by MAb 5E4, which is known to bind hK2 (24). For assessing the binding of the GST-peptides with complexes of PSA, including PSA-ACT and PSA-α1-protease inhibitor (PSA-API) (28), the complexes were captured by antibodies against ACT and API, respectively. After capturing the various proteinases or PSA complexes, GST-peptide was added and binding was monitored as described above for the GST-peptide IFMA.

PSA [2] = molecular target: T1, PSA; assay: Proteolytic cleavage of IGF-BP-3 by PSA, IGF-BP-3 IFMA; assay type: biochemical; parameters: PSA was purified from human seminal fluid as described previously (3); from tissue; host or cells: human seminal fluid; details: PSA 5 μg/mL, 100-fold molar excess of synthetic peptide, IGF-BP-3 70 ng/mL, 16 h at 37° C.; PSA alone 30%
Experimental: The extent of the cleavage of the substrate was quantitated by monitoring the decrease in IGF-BP-3 immunoreactivity due to proteolytic cleavage of it. PSA (5 μg/mL) was incubated with IGF-BP-3 (70 ng/mL) for 16 h at 37° C. with 100-fold molar excess of peptides to PSA and measured for IGF-BP3 immunoreactivity by IFMA as described (33). As control, the peptide was also added to the reaction mixture containing PSA and IGF-BP3 just before starting the immunoassay to quantify the possible interference of the peptide in the IFMA for IGF-BP-3.
In the experiments, PSA (5 μg/mL) in TBS buffer, pH 7.8 alone or with 100-fold molar excess of peptide was incubated with IGF-BP-3 (70 ng/mL) for 16 h at 37° C., after which the concentration of intact IGF-BP-3 was determined by IFMA.

T1 sequence (P07288 25-261): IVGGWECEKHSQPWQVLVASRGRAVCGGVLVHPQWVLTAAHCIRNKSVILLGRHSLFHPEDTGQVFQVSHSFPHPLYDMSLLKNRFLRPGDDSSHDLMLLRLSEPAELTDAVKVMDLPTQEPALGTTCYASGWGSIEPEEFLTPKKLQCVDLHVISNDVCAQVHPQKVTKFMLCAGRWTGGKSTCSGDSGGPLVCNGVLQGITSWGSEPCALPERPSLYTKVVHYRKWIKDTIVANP

| binding to PSA in GST-peptide IFMA (in words) (PSA [1]) | Maximal binding (CPS) (PSA [1]) | cleavage of IGF-BP-3 by PSA in the presence of peptide (PSA [2]) | Compound |
| --- | --- | --- | --- |
| less efficiently than C-4 | 428000 CPS |  | CC(C)C[C@@H]1NC(=O)[C@H](Cc2ccc(O)cc2)NC(=O)[C@H](CC(=O)O)NC(=O)[C@H](Cc2ccc(O)cc2)NC(=O)[C@H](CC(N)=O)NC(=O)[C@H](Cc2c[nH]cn2)NC(=O)[C@H](C)NC(=O)[C@H](Cc2ccccc2)NC(=O)[C@H](C(C)C)NC(=O)[C@@H](N)CSSC[C@@H](C(=O)O)NC(=O)[C@H](C(C)C)NC1=O [Peptide B-2] (H-CVFAHNYDYLVC-OH; disulfide 1-12; N-terminus assumed) |
| less efficiently than C-4 | 219000 CPS | about 70% | CVFTSDYAFC [Peptide A-1] |
